This is an account of results in ChEMBL document CHEMBL2163339, “Discovery of potent inhibitors of human and mouse fatty acid amide hydrolases” (J Med Chem, 2012).

For series [1], the target named is T1, Fatty-acid amide hydrolase 1 (Mus musculus, UniProt O08914).
T1 sequence (O08914 whole entry): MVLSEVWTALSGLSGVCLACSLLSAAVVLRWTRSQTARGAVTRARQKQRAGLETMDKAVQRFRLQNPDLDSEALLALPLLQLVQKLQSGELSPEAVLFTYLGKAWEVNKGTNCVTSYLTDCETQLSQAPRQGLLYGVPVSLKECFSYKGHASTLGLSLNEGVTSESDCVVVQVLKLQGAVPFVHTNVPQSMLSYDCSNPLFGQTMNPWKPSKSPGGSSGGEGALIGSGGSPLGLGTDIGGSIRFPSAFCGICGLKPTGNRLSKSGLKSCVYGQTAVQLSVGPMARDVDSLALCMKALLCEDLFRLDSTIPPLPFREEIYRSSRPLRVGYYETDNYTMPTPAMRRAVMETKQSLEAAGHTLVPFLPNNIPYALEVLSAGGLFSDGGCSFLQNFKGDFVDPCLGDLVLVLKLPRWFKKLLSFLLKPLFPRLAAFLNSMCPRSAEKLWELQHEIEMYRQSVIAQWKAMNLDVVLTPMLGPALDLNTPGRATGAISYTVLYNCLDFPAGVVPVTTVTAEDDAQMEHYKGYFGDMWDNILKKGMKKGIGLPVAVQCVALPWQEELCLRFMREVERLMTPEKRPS
In words: Inhibition of mouse FAAH isolated from brain homogenate using [3H-ethanolamine]AEA as substrate incubated for 20 mins prior to substrate addition measured after 15 mins by beta counting analysis.

The target of series [2] is T2, Fatty-acid amide hydrolase 1 (Homo sapiens, UniProt O00519).
T2 sequence (O00519 whole entry): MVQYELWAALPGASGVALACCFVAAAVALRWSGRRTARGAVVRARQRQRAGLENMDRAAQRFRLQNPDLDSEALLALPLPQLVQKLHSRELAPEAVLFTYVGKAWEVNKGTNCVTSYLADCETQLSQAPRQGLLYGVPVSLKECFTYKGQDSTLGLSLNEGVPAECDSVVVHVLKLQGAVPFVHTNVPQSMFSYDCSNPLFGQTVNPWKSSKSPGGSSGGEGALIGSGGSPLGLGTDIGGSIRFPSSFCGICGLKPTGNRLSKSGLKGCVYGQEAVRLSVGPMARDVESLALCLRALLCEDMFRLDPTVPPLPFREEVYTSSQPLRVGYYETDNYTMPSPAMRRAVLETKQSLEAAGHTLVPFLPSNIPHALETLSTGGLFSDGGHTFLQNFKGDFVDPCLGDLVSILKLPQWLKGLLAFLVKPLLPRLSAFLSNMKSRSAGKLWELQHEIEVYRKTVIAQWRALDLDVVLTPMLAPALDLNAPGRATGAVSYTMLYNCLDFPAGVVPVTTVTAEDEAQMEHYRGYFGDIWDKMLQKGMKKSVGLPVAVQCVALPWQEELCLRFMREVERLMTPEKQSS
In words: Inhibition of human recombinant FAAH.

The subject of series [3] is Rattus norvegicus. In words: Analgesic activity in rat assessed as increase in paw withdrawal threshold at 10 mg/kg, po. The class given is functional, organism-based. Details: dose 10 mg/kg.
Series [4] relates to Mus musculus. The series is described as follows: Toxicity against CD1 mouse assessed as limbic/striatal stereotypies at 10 mg/kg, po at 60 mins by Irwin test. The class given is organism-based. Also noted: dose 10 mg/kg, route oral. The following applies: in vivo, 1 h.
The test system of series [5] is Mus musculus. The series is described as follows: Anxiolytic activity in mouse at 30 mg/kg, po measured for 5 mins by elevated plus maze test. Conditions: in vivo. Details: dose 30 mg/kg, route oral. It is filed as organism-based.
Series [6] concerns the target Voltage-gated inwardly rectifying potassium channel KCNH2 (Homo sapiens, UniProt Q12809). In words: Inhibition of human ERG expressed in CHOK1 cells for 5 mins by automated patch clamp assay. It is filed as cell-based, CHO-K1.
The target in series [7] is T3, N-acyl-phosphatidylethanolamine-hydrolyzing phospholipase D (Mus musculus) (UniProt Q8BH82).
T3 sequence (whole entry): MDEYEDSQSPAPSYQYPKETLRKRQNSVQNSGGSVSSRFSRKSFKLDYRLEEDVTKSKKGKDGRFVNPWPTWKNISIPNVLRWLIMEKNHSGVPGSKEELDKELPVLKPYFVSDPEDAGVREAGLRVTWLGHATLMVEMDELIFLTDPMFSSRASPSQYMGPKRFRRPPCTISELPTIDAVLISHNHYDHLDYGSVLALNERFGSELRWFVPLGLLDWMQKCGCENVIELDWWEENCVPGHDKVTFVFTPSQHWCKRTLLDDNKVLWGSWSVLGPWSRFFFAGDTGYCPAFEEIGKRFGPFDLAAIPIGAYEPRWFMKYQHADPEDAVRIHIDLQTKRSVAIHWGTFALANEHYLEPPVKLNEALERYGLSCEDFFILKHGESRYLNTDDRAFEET
In words: Inhibition of NAPE-PLD-meidated AEA synthesis in mouse brain homogenate using [3H]NArPE as substrate incubated for 20 mins prior to substrate addition. The class given is tissue-based.

Series [8] deals with Mus musculus. In words: Toxicity against CD1 mouse assessed as limbic/striatal stereotypies at 100 mg/kg, po at 60 mins by Irwin test. The class given is organism-based. Details: dose 100 mg/kg, route oral. The following applies: in vivo, 1 h.
The test system of series [9] is Mus musculus. The series is described as follows: Toxicity against CD1 mouse assessed as limbic/striatal stereotypies at 30 mg/kg, po at 60 mins by Irwin test. It is filed as organism-based. Also noted: dose 30 mg/kg, route oral. The following applies: in vivo, 1 h.
Series [10] deals with Mus musculus. The series is described as follows: Anxiolytic activity in mouse at 10 mg/kg, po measured for 5 mins by elevated plus maze test. The class given is organism-based. Also noted: dose 10 mg/kg, route oral. Conditions: in vivo.
Series [11] concerns Mus musculus. The series is described as follows: Toxicity against CD1 mouse assessed as limbic/striatal stereotypies at 30 mg/kg, po at 240 mins by Irwin test. The following applies: in vivo, 4 h. The class given is organism-based. Details: dose 30 mg/kg, route oral.
Series [12] addresses Transient receptor potential cation channel subfamily V member 1 (Mus musculus) (UniProt Q704Y3). The series is described as follows: Displacement of [3H]RTX from TRPV1 receptor in mouse brain fraction. The class given is tissue-based. (In general: Displacement assays read how much labelled ligand stays bound in the presence of the test substance.)
The subject of series [13] is Rattus norvegicus. In words: Analgesic activity in rat assessed as increase in paw withdrawal threshold at 30 mg/kg, po. The class given is functional, organism-based. Details: dose 30 mg/kg.
Series [14] addresses Cannabinoid receptor 1 (Mus musculus) (UniProt P47746). In words: Displacement of [3H]CP55.940 from CB1 receptor in mouse brain fraction. The class given is tissue-based.
In series [15] the test system is Rattus norvegicus. The series is described as follows: Analgesic activity in rat assessed as increase in paw withdrawal threshold at 100 mg/kg, po. The class given is functional, organism-based. Also noted: dose 100 mg/kg.
The subject of series [16] is Mus musculus. In words: Toxicity against CD1 mouse assessed as limbic/striatal stereotypies at 10 mg/kg, po at 240 mins by Irwin test. The class given is organism-based. Also noted: dose 10 mg/kg, route oral. The following applies: in vivo, 4 h.
Series [17] concerns the target T4, Monoglyceride lipase (Mus musculus) (UniProt O35678).
T4 sequence (whole entry): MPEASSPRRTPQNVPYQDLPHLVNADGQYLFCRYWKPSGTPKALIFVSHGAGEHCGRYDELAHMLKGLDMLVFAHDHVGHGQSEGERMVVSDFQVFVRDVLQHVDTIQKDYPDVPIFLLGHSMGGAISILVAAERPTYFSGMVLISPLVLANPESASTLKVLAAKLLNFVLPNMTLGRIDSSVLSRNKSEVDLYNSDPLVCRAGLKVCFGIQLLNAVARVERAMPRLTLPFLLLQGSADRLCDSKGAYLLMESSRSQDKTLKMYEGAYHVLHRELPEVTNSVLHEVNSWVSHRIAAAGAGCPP
In words: Inhibition of MAGL-mediated 2AG hydrolysis in mouse brain homogenate using [3H]2OG as substrate incubated for 20 mins prior to substrate addition. It is filed as tissue-based.

The test system of series [18] is Mus musculus. In words: Toxicity against CD1 mouse assessed as limbic/striatal stereotypies at 100 mg/kg, po at 240 mins by Irwin test. The class given is organism-based. Details: dose 100 mg/kg, route oral. Conditions: in vivo, 4 h.
The subject of series [19] is Mus musculus. In words: Anxiolytic activity in mouse at 3 mg/kg, po measured for 5 mins by elevated plus maze test. It is filed as organism-based. Conditions: in vivo. Also noted: dose 3 mg/kg, route oral.
The species named for series [20] is Mus musculus. In words: Inhibition of DAGL-mediated 2AG synthesis in mouse brain homogenate using […] as substrate incubated for 20 mins prior to substrate addition. It is filed as tissue-based.
Series [21] has as its target Cannabinoid receptor 2 (Mus musculus) (UniProt P47936). The series is described as follows: Displacement of [3H]CP55.940 from CB2 receptor in mouse spleen fraction. It is filed as tissue-based.
For series [22], the system named is Rattus norvegicus. In words: Analgesic activity in rat assessed as increase in paw withdrawal threshold at 50 mg/kg, po. The class given is functional, organism-based. Also noted: dose 50 mg/kg.

Calls of active or inactive are those of the source.

As usually defined, the IC50 is the concentration that inhibits the measured activity by half. As usually defined, the Ki is a dissociation constant, usually derived from enzyme kinetics or from competition with a known ligand. Higher therefore signals a looser hold on the target.

Chain of Cannabinoid receptor 2 (Mus musculus) (P47936 whole entry): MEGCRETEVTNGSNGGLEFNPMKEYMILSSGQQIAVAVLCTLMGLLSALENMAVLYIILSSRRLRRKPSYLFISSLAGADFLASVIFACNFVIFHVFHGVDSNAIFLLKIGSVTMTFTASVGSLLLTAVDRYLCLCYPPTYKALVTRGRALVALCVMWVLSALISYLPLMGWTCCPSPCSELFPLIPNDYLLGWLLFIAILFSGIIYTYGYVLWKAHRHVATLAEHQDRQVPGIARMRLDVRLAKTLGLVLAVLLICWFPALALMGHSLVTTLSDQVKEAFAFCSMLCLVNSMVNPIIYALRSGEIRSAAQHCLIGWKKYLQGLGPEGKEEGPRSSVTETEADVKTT
Chain of Transient receptor potential cation channel subfamily V member 1 (Mus musculus) (Q704Y3 whole entry): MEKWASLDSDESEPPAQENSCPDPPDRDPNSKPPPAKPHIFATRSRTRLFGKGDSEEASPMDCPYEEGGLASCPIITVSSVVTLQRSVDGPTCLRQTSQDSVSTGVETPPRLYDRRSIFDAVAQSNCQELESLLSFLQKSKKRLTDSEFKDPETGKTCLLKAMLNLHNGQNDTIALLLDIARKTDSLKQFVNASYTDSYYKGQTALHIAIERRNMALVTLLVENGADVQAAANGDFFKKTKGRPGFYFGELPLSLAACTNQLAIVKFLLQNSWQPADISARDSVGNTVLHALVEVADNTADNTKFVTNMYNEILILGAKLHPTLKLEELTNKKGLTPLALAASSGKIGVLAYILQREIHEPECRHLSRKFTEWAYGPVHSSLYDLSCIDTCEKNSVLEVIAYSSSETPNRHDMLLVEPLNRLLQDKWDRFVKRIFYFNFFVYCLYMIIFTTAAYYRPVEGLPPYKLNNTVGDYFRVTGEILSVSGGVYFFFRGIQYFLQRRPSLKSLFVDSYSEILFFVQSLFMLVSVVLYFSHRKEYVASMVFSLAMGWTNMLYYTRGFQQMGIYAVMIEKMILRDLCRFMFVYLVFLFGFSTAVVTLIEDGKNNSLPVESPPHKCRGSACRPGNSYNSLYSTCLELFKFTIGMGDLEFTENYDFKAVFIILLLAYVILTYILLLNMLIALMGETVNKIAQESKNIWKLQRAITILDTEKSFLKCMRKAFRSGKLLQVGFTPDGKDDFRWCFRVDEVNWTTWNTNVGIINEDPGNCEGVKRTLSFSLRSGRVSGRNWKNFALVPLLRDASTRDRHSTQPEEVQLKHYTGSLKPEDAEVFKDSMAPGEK
Chain of Voltage-gated inwardly rectifying potassium channel KCNH2 (Q12809 whole entry): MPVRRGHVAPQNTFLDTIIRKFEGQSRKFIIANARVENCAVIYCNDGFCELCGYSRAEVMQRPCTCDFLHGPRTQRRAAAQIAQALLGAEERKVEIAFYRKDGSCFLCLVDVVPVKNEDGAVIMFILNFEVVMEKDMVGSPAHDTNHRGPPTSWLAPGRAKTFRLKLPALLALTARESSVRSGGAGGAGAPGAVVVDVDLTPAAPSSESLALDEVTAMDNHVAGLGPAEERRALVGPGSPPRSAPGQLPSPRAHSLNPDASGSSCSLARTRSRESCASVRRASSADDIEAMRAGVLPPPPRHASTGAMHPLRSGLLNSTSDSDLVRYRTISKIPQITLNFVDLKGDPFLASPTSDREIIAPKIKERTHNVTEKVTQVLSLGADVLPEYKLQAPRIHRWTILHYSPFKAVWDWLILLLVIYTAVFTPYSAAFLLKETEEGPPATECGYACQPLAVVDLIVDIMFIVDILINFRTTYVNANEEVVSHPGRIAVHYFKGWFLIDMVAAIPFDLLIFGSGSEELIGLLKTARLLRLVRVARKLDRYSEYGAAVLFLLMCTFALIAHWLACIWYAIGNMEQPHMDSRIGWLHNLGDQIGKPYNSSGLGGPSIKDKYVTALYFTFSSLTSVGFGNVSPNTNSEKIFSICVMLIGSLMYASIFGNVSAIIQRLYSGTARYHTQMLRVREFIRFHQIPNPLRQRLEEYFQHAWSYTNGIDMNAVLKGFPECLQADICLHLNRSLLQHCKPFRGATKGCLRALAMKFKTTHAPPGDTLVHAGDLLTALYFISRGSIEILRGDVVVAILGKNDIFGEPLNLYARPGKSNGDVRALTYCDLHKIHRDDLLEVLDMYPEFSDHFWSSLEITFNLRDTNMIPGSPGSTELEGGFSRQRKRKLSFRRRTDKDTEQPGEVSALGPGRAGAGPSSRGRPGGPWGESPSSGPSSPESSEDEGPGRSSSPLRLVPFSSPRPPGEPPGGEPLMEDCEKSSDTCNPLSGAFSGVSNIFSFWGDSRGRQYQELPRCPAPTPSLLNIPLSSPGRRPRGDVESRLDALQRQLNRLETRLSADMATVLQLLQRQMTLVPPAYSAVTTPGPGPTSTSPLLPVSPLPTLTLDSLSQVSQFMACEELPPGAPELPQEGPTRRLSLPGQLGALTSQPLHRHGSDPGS
Chain of Cannabinoid receptor 1 (Mus musculus) (P47746 whole entry): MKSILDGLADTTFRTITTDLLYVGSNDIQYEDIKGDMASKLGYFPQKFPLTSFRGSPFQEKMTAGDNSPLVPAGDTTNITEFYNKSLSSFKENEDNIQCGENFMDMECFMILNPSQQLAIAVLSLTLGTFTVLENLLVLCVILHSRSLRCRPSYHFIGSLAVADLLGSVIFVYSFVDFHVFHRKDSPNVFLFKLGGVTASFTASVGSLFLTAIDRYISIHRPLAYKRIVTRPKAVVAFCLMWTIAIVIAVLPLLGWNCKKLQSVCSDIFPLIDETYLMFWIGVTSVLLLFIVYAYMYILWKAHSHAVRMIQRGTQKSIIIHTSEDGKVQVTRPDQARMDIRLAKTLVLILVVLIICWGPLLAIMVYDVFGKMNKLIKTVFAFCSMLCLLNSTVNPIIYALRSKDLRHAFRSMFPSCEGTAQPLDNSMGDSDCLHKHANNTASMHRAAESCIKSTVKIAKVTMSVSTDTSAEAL

Consider `NC(=O)c1cccc(-c2cccc(OC(=O)NCCCCCCc3ccccc3)c2)c1`, for which the results for the concentration for half-maximal inhibition (IC50) in series [1] and in [2] were 14 nM and 36 nM, respectively.
Consider `Cc1cc(C(N)=O)c(-c2cccc(OC(=O)NCCCCCCc3ccccc3)c2)o1`, for which the result (in the series on Rattus norvegicus [3]; in series [12]; in [14]; in series [21]) was inactive. For the same molecule, the Activity result in the series with Mus musculus [4] was “Toxic”; in the series with Mus musculus [5], “Non-toxic”; in the series with Mus musculus [8], “Toxic”; in the series on Mus musculus [9], “Toxic”; in the series on Mus musculus [10], “Non-toxic”; in the series with Mus musculus [11], “Non-toxic”. Further, the Activity result with Mus musculus [16], in the series on Mus musculus [18] and with Mus musculus [19] was “Non-toxic” in each case. Moreover, the IC50 is 1.7 nM in series [1], above 10000 nM in series [6] and 102 nM in [2]. For the same molecule, the inhibition constant Ki in series [1] came out at 0.49 nM. The inhibition entry (in [7]; in series [17]; in the series listed under Mus musculus [20]) was “inactive” in each case. The outcome in the series with Rattus norvegicus [13] and in the series with Rattus norvegicus [15] was Active.
For the molecule `NC(=O)c1cccc(-c2cccc(OC(=O)NC3CCCCC3)c2)c1`, the outcome in the series on Rattus norvegicus [22] was inactive.
